Some test systems named below: A498 renal; NCI-H226 lung; U251 CNS; A549 NSCLC; HT29 colon; HOP-62 NSCLC; SF-295 CNS; UO-31 renal; PC-3 prostate; MDA-N; UACC-62 melanoma; SN12C renal; LOX IMVI melanoma; CAKI-1 renal; SW-620 colon; SR leukemia; HCT-116 colon; DU-145 prostate; TK-10 renal; MDA-MB-435.
Common to all, as to test: NCI tumour cell line growth inhibition, 48 h

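Briefly, cells in 96-well plates were exposed to five compound concentrations for 48 h, and endpoints were estimated by linear interpolation. At the TGI there is no net growth.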

On to `Cc1cc(C)nc(NC(=S)Nc2cccc(Cl)c2)c1`, for which the TGI in the assay on A498 renal, in the assay on NCI-H226 lung, in the assay with U251 CNS, with A549 NSCLC, in the assay with HT29 colon and in the assay with HOP-62 NSCLC was > 100 µM each time. The TGI in the assay on SF-295 CNS, in the assay with UO-31 renal, in the assay on PC-3 prostate, with MDA-N, with UACC-62 melanoma and in the assay with SN12C renal was > 100 µM throughout. Also, the TGI was > 100 µM in the assay on LOX IMVI melanoma; > 86.5 µM in the assay on CAKI-1 renal; > 100 µM in the assay with SW-620 colon; > 100 µM in the assay on SR leukemia; > 100 µM with HCT-116 colon; > 100 µM with DU-145 prostate. For the same compound, the TGI in the assay with TK-10 renal and with MDA-MB-435 was > 100 µM throughout.

With `C/C=C/C=C/C1=NN(c2cccc(S(=O)(=O)O)c2)C2(C1)C(Cl)C(=O)N2c1nc2ccccc2s1` (stereo not given), the TGI with A498 renal stood at 31.8 µM; in the assay with NCI-H226 lung, 32 µM; in the assay with U251 CNS it was 23.8 µM; in the assay with A549 NSCLC it was 28.3 µM; with HT29 colon, 33.3 µM; in the assay with HOP-62 NSCLC, 36.2 µM. The TGI with SF-295 CNS was found to be 31 µM; with UO-31 renal, 4.15 µM; in the assay with PC-3 prostate, 26.3 µM; with MDA-N it was 29 µM; with UACC-62 melanoma, 26.2 µM; with SN12C renal it was 32.1 µM. The TGI in the assay with LOX IMVI melanoma was 24.5 µM; in the assay on CAKI-1 renal, 20.9 µM; in the assay on SW-620 colon it was 43.1 µM; in the assay on SR leukemia it was > 54.3 µM; in the assay with HCT-116 colon it was 27.7 µM; in the assay on DU-145 prostate, 26.2 µM. Also, the TGI in the assay with TK-10 renal was 27.8 µM; in the assay on MDA-MB-435 it was 26.6 µM.

In the case of `CCOC(=O)CCC(NC(=O)N1CCN(c2c(C)nc(C)[nH]c2=O)CC1)C(=O)OCC` (stereo not given), the TGI in the assay on A498 renal, in the assay on NCI-H226 lung, in the assay on U251 CNS, in the assay with A549 NSCLC, in the assay with HT29 colon and in the assay on HOP-62 NSCLC was > 100 µM in each case. Moreover, the TGI in the assay with SF-295 CNS, in the assay on UO-31 renal, in the assay with PC-3 prostate, in the assay on MDA-N, in the assay on UACC-62 melanoma and in the assay with SN12C renal was > 100 µM each time. Moreover, the TGI in the assay on LOX IMVI melanoma, in the assay with CAKI-1 renal, in the assay on SW-620 colon, in the assay on SR leukemia, in the assay on HCT-116 colon and with DU-145 prostate was > 100 µM throughout. Further, the TGI with TK-10 renal and in the assay with MDA-MB-435 was > 100 µM each time.

For `COC(=O)C1=C(O)C(C(=O)OC)[C@]2(O)[C@H](C(=O)OC)[C@H]1C[C@@H](c1ccccc1OC)[C@H]2C(=O)OC` (stereo not given in full), the TGI with A498 renal stood at 17.4 µM; in the assay on NCI-H226 lung, 20.7 µM; in the assay with U251 CNS, 19.3 µM; with A549 NSCLC it was 21.7 µM; in the assay with HT29 colon it was 14.6 µM; with HOP-62 NSCLC, 39.1 µM. Besides, the TGI in the assay with SF-295 CNS came out at 25.6 µM; in the assay with UO-31 renal, 21.6 µM; in the assay on PC-3 prostate it was 20.7 µM; in the assay with MDA-N, 4.79 µM; in the assay on UACC-62 melanoma, 18.3 µM; in the assay with SN12C renal, 17.4 µM. Moreover, the TGI in the assay on LOX IMVI melanoma turned out to be 9.35 µM; in the assay with CAKI-1 renal it was 17.5 µM; in the assay on SW-620 colon it was 19.6 µM; in the assay with SR leukemia, 7.04 µM; with HCT-116 colon it was 12.9 µM; in the assay with DU-145 prostate it was 26.2 µM. In addition, the TGI is > 54.7 µM with TK-10 renal and 9.79 µM in the assay with MDA-MB-435.

`CCOC(=O)c1c(NS(=O)(=O)c2ccc(Br)cc2)sc2c1CCCC2`: the TGI in the assay with A498 renal worked out at 42.2 µM; with NCI-H226 lung, 9.91 µM; in the assay on U251 CNS it was 25.4 µM; with A549 NSCLC it was 26.5 µM; with HT29 colon, 10.1 µM; with HOP-62 NSCLC, 14.1 µM. In addition, the TGI in the assay with SF-295 CNS stood at 8.39 µM; in the assay with UO-31 renal it was 15.7 µM; with PC-3 prostate, 11.5 µM; in the assay with MDA-N, 52.9 µM; in the assay on UACC-62 melanoma, 17.7 µM; in the assay with SN12C renal it was 12.1 µM. The TGI is 27.3 µM with LOX IMVI melanoma; 33.7 µM with CAKI-1 renal; 30.6 µM in the assay on SW-620 colon; 74.7 µM in the assay on SR leukemia; 21.1 µM with HCT-116 colon; > 58 µM with DU-145 prostate. The TGI was found to be 31.9 µM with TK-10 renal and 49.1 µM in the assay on MDA-MB-435.

For the compound `CCOC(=O)c1ccc(-c2cccs2)n1C`, the TGI in the assay with A498 renal, in the assay with NCI-H226 lung, in the assay on U251 CNS, in the assay with A549 NSCLC, in the assay on HT29 colon and in the assay on HOP-62 NSCLC was > 100 µM in each case. In addition, the TGI in the assay on SF-295 CNS, in the assay on UO-31 renal, in the assay on PC-3 prostate, in the assay on MDA-N, in the assay on UACC-62 melanoma and with SN12C renal was > 100 µM throughout. For the same compound, the TGI with LOX IMVI melanoma, in the assay with CAKI-1 renal, in the assay with SW-620 colon, in the assay with SR leukemia, in the assay on HCT-116 colon and in the assay with DU-145 prostate was > 100 µM throughout. Further, the TGI with TK-10 renal and in the assay with MDA-MB-435 was > 100 µM each time.

As for `CSc1nc(C)cc(N(C)c2ccccc2)n1`, the TGI in the assay on A498 renal was > 100 µM; with NCI-H226 lung, 93.9 µM; with U251 CNS, > 100 µM; with A549 NSCLC it was > 100 µM; in the assay with HT29 colon it was 49.5 µM; in the assay on HOP-62 NSCLC, > 100 µM. For the same compound, the TGI in the assay with SF-295 CNS was > 100 µM; in the assay on UO-31 renal, > 100 µM; in the assay with PC-3 prostate, > 100 µM; with MDA-N it was 61.3 µM; in the assay on UACC-62 melanoma it was > 100 µM; in the assay with SN12C renal it was > 100 µM. Besides, the TGI in the assay on LOX IMVI melanoma was > 100 µM; in the assay on CAKI-1 renal, > 100 µM; with SW-620 colon, > 100 µM; in the assay on SR leukemia, 60.7 µM; with HCT-116 colon it was > 100 µM; with DU-145 prostate, > 100 µM. For the same compound, the TGI with TK-10 renal came to 98.9 µM; with MDA-MB-435, 53 µM.
